Reference: article PMC7076174 (Frontiers in Oncology, 2020)

Tests used:
[1] = test system: CD34+ CD38– AML stem cell population; conditions: tretinoin 0.5 μM, 6 days; in three samples
From the text: In order to study the separate effects of GSK3 inhibition or tretinoin on AML stem cells, we used previously obtained cryopreserved blood samples from the Eastern Cooperative Oncology Group (ECOG) tumor repository of newly diagnosed and untreated AML patients (independent of this trial) to conduct in vitro studies. […] Cryopreserved cells were thawed and cultured in RPMI 1640 media (Hyclone) containing 10% fetal bovine serum (Sigma-Aldrich, St. Louis, MO, USA) and 1% final concentration penicillin and streptomycin. Amphotericin B (0.5 μg/ml) and ciprofloxacin (10 μg/ml) were added to help eliminate fungal and mycoplasma contamination in the cell culture. Cells were treated with SB415285 (10 μM) obtained from Tocris (Bristol, UK), a laboratory-grade GSK3 inhibitor which competitively binds to the ATP binding site of GSK3 ([23]), and tretinoin (0.5 μM). […] After 6 days, immunophenotyping for the CD34+ CD38– AML stem cell population was performed by flow cytometry.

[2] = Description: Lithium carbonate (lithium) 300 mg was administered orally three times a day (or two times daily for patients age ≥65 years) starting on day - 3 prior to cycle 1 and on day 1 of all subsequent cycles consisting of 28 days (Figure 1). The “lead-in” period prior to cycle 1 was designed to allow for correlative studies to investigate the effects of lithium on leukemic cell GSK3 activity and to ensure achievement of adequate serum lithium concentrations prior to tretinoin exposure. The target serum lithium concentration was the laboratory-defined therapeutic range of 0.6–1.0 mmol/L based on toxicity in humans for treatment of mood disorders. Dose adjustments were made based on the serum lithium concentration (Supplementary Figure 1). Dosing of tretinoin followed a “3+3” study design with three patients sequentially enrolled at each dose level ([13]). Tretinoin was administered orally at a dose of 22.5 mg/m^2/day (dose level 1) or 45 mg/m^2/day (dose level 2) in two divided doses, from days 1 to 7 and from days 15 to 21 of a 28-day cycle.
GSK3 [3] = conditions: six patients with evaluable samples; CD34+ and/or CD117+ cells
Method: Blood samples were collected at baseline, days 1, 8, and 30 and at the end of the study period. Specimens were processed only if ≥5% leukemic cells were present in the blood as assessed using morphologic criteria. […] Bone marrow was collected at baseline and end of study. Immunophenotyping was performed by multi-parameter flow cytometry using fluorochrome-labeled antibodies to CD11b, CD14, and CD15 as markers for monocytic and/or granulocytic differentiation ([19]–[22]). The stained samples were run on a BD Biosciences LSRII (San Jose, CA, USA) flow cytometer. Cells were concurrently stained for CD34, CD117, and CD38 for identification of the leukemic blast and stem cell populations (CD34+ CD38–). […] Phosphorylated Serine-9 GSK3β antibody was obtained from Cell Signaling Technologies (Beverly, MA, USA).

GSK3 [4] = conditions: cited from earlier work
GSK3α = test system: GSK3α; design: method as in PMID 23305709; conditions: cited from earlier work
GSKβ = test system: GSKβ; design: method as in PMID 23305709; conditions: cited from earlier work

Question: For `CC1=C(/C=C/C(C)=C/C=C/C(C)=C/C(=O)O)C(C)(C)CCC1` [tretinoin], which “Reduction of the CD34+ CD38– population, tretinoin alone vs combination with SB415285” value [1] is on record?
Answer: comparable reduction of the CD34+ CD38– population

Question: Which “Target serum lithium concentration (0.6–1.0 mmol/L) achieved” value ([2]; oral lithium carbonate 300 mg 2–3 times daily, dose adjusted) does the source give for `O=C([O-])[O-].[Li+].[Li+]` [lithium, Lithium carbonate] here?
Answer: achieved at least once in all nine patients

Question: What about the “Serum lithium concentration at admission” value ([2]; patient with delirium (DLT), third week of treatment, dose level 1) of the same compound?
Answer: 0.28 mmol/L

Question: What about the “Median increase in pGSK3β, change in mean fluorescence intensity (MFI) from baseline” value (GSK3 [3]) of the same compound?
Answer: 1,093 (range, 111–1,738)

Question: What about the “Lithium threshold concentration necessary in vivo to significantly inhibit GSK3” value (GSK3 [4]) of the same compound?
Answer: ~ 0.8 mmol/L

Question: With `O=C1NC(=O)C(c2cnc3ccccn23)=C1c1cn2c3c(cc(F)cc13)CN(C(=O)N1CCCCC1)CC2` [LY2090314] as the compound, how does the IC50 (GSK3α) read?
Answer: 1.5 nM

Question: What about the IC50 (GSKβ) of the same compound?
Answer: 0.9 nM
